# Values of other authors in patent US20210353574A1, “Softgels with solid or gel-like polymeric fill matrix” (Bayer HealthCare LLC, priority 2018, published 2021).
# Settings: used as an analgesic
row,SMILES,minimum effective dose
1,COc1ccc2cc([C@H](C)C(=O)O)ccc2c1 [Naproxen],200 mg
2,COc1ccc2cc([C@H](C)C(=O)O)ccc2c1 [naproxen sodium],220 mg
